According to patent publication US4663325A, “1-(2,3,4-tri-methoxybenzyl)-4[bis(4-fluorophenyl)methyl] piperazines are useful for treating cerebrovascular disease” (Kanebo Ltd., priority 1984, dated 1987):

Columns and labels:
[1] = system: vertebral blood flow; assay: Activity of increasing cerebral blood flow (vertebral blood flow as index, anesthetized dogs, intravenous); format: in vivo; conditions: 1 mg/kg i.v. (right femoral vein), anesthetized mongrel dogs
Protocol: The activity of increasing cerebral blood flow was measured by using the amount of vertebral blood flow as an index. Mongrel dogs of either sex (body weight 11 to 18 kg; four per groups) were anesthetized with sodium pentobarbital (30 mg/kg, by intravenous injection), and the right vertebral artery was isolated from the surrounding tissues. A flow probe was attached to it and led to an electromagnetic flow meter (MFV-2100 made by Nihon Kohden Co., Ltd.). The amount of blood flow was periodically measured [see Meth and Find Exptl Clin Pharmacol, 3 (6), 397 (1981)].
Each of the test compounds was dissolved in a 2% tartaric acid solution containing 20% dimethylacetamide, and administered to the right femoral vein in a dose of 1 mg/kg.

[2] = system: death induced by collagen and adrenaline; assay: Activity of defending thromboembolism-induced death (collagen and adrenaline, mice, oral); format: in vivo, ddY-strain male mice; conditions: Mus musculus, 1 h, one hour before collagen (400 micrograms/kg) and adrenaline (50 micrograms/kg) i.v., male ddY mice, probit method, read-out: ED50 (dose required to defend death induced by collagen and adrenaline to an extent of 50%)
Protocol: The compounds A, B, C and D of the invention and the comparative compounds 1 and 2 were used.
Each of the test compounds was dissolved or suspended in a 1% gum arabic solution, and orally administered to ddY-strain male mice (body weight 18 to 25 g; five per group). […] The dose required to defend death induced by collagen and adrenaline to an extent of 50% (ED50) was determined by the probit method (see The Journal of Pharmacology and Experimental Therapeutics, Vol. 225, page 57, 1983).

[3] = Acute toxicity (oral, mice); conditions: mouse, in vivo, fasted male ddY mice, deaths during seven days, Weil method
Protocol: ddY-strain male mice (body weight 18 to 22 g; five per group) were caused to fast 24 hours. Then, each of the compounds of this invention (A, B, C and D) was administered orally, and acute toxicity values (LD50) were determined.
Each of the compounds was dissolved or suspended in a 2% tartaric acid solution containing 20% of dimethylacetamide, and orally administered to the animals. From the number of animals which died during seven days, the LD50 values were calculated by using the Weil method.

[4] = 0.5 minutes after administration
[5] = 10 minutes after administration
[6] = 20 minutes after administration

Structure (SMILES): COc1ccc(CN2CCN(C(c3ccc(F)cc3)c3ccc(F)cc3)CC2)c(OC)c1OC.Cl.Cl [Compound D, 1-(2,3,4-Trimethoxybenzyl)-4-[bis(4-fluorophenyl)methyl]piperazine dihydrochloride]
- Increase (%) in vertebral blood flow (mean ± standard error) [1, 4]: 95.9 ± 14.5%
- Increase (%) in vertebral blood flow (mean ± standard error) ([1]; 3 minutes after administration): 102.6 ± 24.5%
- Increase (%) in vertebral blood flow (mean ± standard error) ([1]; 5 minutes after administration): 107.0 ± 23.9%
- Increase (%) in vertebral blood flow (mean ± standard error) [1, 5]: 87.0 ± 21.1%
- Increase (%) in vertebral blood flow (mean ± standard error) [1, 6]: 65.1 ± 15.3%
- ED50 [2]: 7.7 mg/kg
- LD50 at 168 h [3]: 300 mg/kg

Structure (SMILES): COc1ccc(CN2CCN(C(c3ccccc3)c3ccc(F)cc3)CC2)c(OC)c1.O=C(O)/C=C/C(=O)O (stereo not drawn) [A, 1-(2,4-Dimethoxybenzyl)-4-(4-fluorobenzhydryl)-piperazine fumarate]
- Increase (%) in vertebral blood flow (mean ± standard error) [1, 4]: 80.1 ± 17.0%
- Increase (%) in vertebral blood flow (mean ± standard error) ([1]; 3 minutes after administration): 56.5 ± 15.0%
- Increase (%) in vertebral blood flow (mean ± standard error) ([1]; 5 minutes after administration): 39.1 ± 12.2%
- Increase (%) in vertebral blood flow (mean ± standard error) [1, 5]: 16.2 ± 5.4%
- Increase (%) in vertebral blood flow (mean ± standard error) [1, 6]: 11.3 ± 4.1%
- ED50 [2]: 29.6 mg/kg
- LD50 at 168 h [3]: 300 mg/kg

Structure (SMILES): Cl.Cl.c1ccc(C(c2ccccc2)N2CCN(Cc3ccc4c(c3)OCO4)CC2)cc1 [compound 2, 1-(3,4-Methylenedioxybenzyl)-4-benzhydrylpiperazine dihydrochloride, reference compound]
- Increase (%) in vertebral blood flow (mean ± standard error) [1, 4]: 50.6 ± 13.2%
- Increase (%) in vertebral blood flow (mean ± standard error) ([1]; 3 minutes after administration): 13.5 ± 6.9%
- Increase (%) in vertebral blood flow (mean ± standard error) ([1]; 5 minutes after administration): 7.4 ± 4.9%
- Increase (%) in vertebral blood flow (mean ± standard error) [1, 5]: 2.5 ± 3.3%
- Increase (%) in vertebral blood flow (mean ± standard error) [1, 6]: 0.4 ± 2.2%
- ED50 [2]: 44.7 mg/kg

Structure (SMILES): COc1ccc(CN2CCN(C(c3ccc(F)cc3)c3ccc(F)cc3)CC2)c(OC)c1.Cl.Cl.O.O [B, 1-(2,4-Dimethoxybenzyl)-4-[bis(4-fluorophenyl)-methyl]piperazine dihydrochloride dihydrate]
- Increase (%) in vertebral blood flow (mean ± standard error) [1, 4]: 105.6 ± 3.9%
- Increase (%) in vertebral blood flow (mean ± standard error) ([1]; 3 minutes after administration): 85.8 ± 15.0%
- Increase (%) in vertebral blood flow (mean ± standard error) ([1]; 5 minutes after administration): 77.0 ± 15.6%
- Increase (%) in vertebral blood flow (mean ± standard error) [1, 5]: 47.5 ± 17.7%
- Increase (%) in vertebral blood flow (mean ± standard error) [1, 6]: 27.1 ± 13.4%
- ED50 [2]: 24.6 mg/kg
- LD50 at 168 h [3]: 225 mg/kg

Structure (SMILES): C(=Cc1ccccc1)CN1CCN(C(c2ccccc2)c2ccccc2)CC1 [Cinnarizine, 1-Cinnamyl-4-benzhydrylpiperazine, reference compound]
- Increase (%) in vertebral blood flow (mean ± standard error) [1, 4]: 65.6 ± 18.2%
- Increase (%) in vertebral blood flow (mean ± standard error) ([1]; 3 minutes after administration): 34.7 ± 15.6%
- Increase (%) in vertebral blood flow (mean ± standard error) ([1]; 5 minutes after administration): 17.0 ± 8.7%
- Increase (%) in vertebral blood flow (mean ± standard error) [1, 5]: 2.9 ± 3.8%
- Increase (%) in vertebral blood flow (mean ± standard error) [1, 6]: 0%

Structure (SMILES): COc1ccc(CN2CCN(C(c3ccccc3)c3ccccc3)CC2)c(OC)c1OC.Cl.Cl.O [compound 1, 1-(2,3,4-Trimethoxybenzyl)-4-benzhydrylpiperazine dihydrochloride monohydrate, reference compound]
- Increase (%) in vertebral blood flow (mean ± standard error) [1, 4]: 75.3 ± 20.0%
- Increase (%) in vertebral blood flow (mean ± standard error) ([1]; 3 minutes after administration): 39.2 ± 15.3%
- Increase (%) in vertebral blood flow (mean ± standard error) ([1]; 5 minutes after administration): 25.6 ± 12.5%
- Increase (%) in vertebral blood flow (mean ± standard error) [1, 5]: 10.0 ± 5.3%
- Increase (%) in vertebral blood flow (mean ± standard error) [1, 6]: 5.0 ± 3.3%
- ED50 [2]: 55.4 mg/kg

Structure (SMILES): COc1ccc(CN2CCN(C(c3ccccc3)c3ccc(F)cc3)CC2)c(OC)c1OC.O=C(O)/C=C/C(=O)O (stereo not drawn) [C, 1-(2,3,4-Trimethoxybenzyl)-4-(4-fluorobenzhydryl)piperazine fumarate]
- Increase (%) in vertebral blood flow (mean ± standard error) [1, 4]: 76.7 ± 15.1%
- Increase (%) in vertebral blood flow (mean ± standard error) ([1]; 3 minutes after administration): 61.2 ± 14.9%
- Increase (%) in vertebral blood flow (mean ± standard error) ([1]; 5 minutes after administration): 50.6 ± 12.4%
- Increase (%) in vertebral blood flow (mean ± standard error) [1, 5]: 27.7 ± 6.3%
- Increase (%) in vertebral blood flow (mean ± standard error) [1, 6]: 16.4 ± 4.6%
- ED50 [2]: 32.7 mg/kg
- LD50 at 168 h [3]: 650 mg/kg
